Reference: article PMC8273083 (ACS infectious diseases, 2021)

Columns and labels:
[1] = system: RH-strain T. gondii tachyzoites; assay: In vivo efficacy, murine model of systemic; design: species or system CF-1 mice; settings: 20 mg/kg orally once daily, in words
[2] = system: RH-strain T. gondii; assay: T. gondii growth inhibition, RH strain; type: cell-based; settings: Toxoplasma gondii, read-out: EC50 vs RH (nM)
[3] = system: T222P strain of T. gondii; assay: microbe, parasite or virus in culture; type: cell-based, Toxoplasma gondii
[4] = molecular target: TgDHOD-VSSM (Toxoplasma gondii, UniProt Q8MXD1); assay: TgDHOD inhibition; type: biochemical

SMILES: CCc1nc(N)nc(N)c1-c1ccc(Cl)cc1 [pyrimethamine]
- survival benefit [1]: no survival benefit

SMILES: COc1cc2[nH]c3cc(Oc4ccc(OC(F)(F)F)cc4)ccc3c(=O)c2cc1F [Compound 27]
- EC50 [2]: 0.63 nM
- effect of the T222P mutation on potency ([3]; T222P versus RH strain, in words): confers resistance
- EC50 ([3]; Toxoplasma gondii, read-out: EC50 vs T222P (nM)): 5.61 nM

SMILES: O=C1C(O)=C([C@H]2CC[C@H](c3ccc(Cl)cc3)CC2)C(=O)c2ccccc21 [ATV, atovaquone]
- Ki [4]: 2720 nM
